Results from US10526371B2, “Hydrogel-forming peptides” (Universiteit Gent, priority 2015, dated 2020).
“And” between values parts separate entries of the source, which are not always exact repeats. Equal values may be shown once. Square brackets hold non-standard residues; d marks the D form. Peptide text beside a SMILES is read from it. β3hF = N[C@H](CC(=O)O)Cc1ccccc1

Columns and labels:
elastase [1] = assay: Proteolytic stability of hydrogels (elastase solution on top of hydrogel); type: in vitro ADME; settings: for time at which hydrogel changed into an opaque structure / gel degradation time (hydrogel unstable/fluid-like): elastase 60 μM in 10 mM PBS on top; for gel degradation time (hydrogel unstable/fluid-like): room temperature; for macroscopic aggregation / physical degradation: over 42 days
Protocol: (B) The proteolytic stability of the hydrogels was analyzed by placing an elastase solution (60 μM in 10 mM PBS) on top of the hydrogel. In all the stability experiments a total volume of 4 mL (gel+PBS solution with and without enzyme) was obtained. The addition of the enzyme solution on top of the hydrogel was set as the starting point of the gel-degradation experiments; B. At specific time-intervals (0 h, 24 h, 2 days, 3 days, 4 days, 5 days, 6 days, 7 days, 2 weeks, 3 weeks, etc.) the liquid portion on top of the hydrogel was removed using a pipette and the hydrogel's volume was estimated using following formula: VTotal−VLiquid portion=VHydrogel (1)
wherein VTotal is the total volume and remains at 4 mL and VLiquid portion is the volume measured of the liquid portion after each sampling interval. At each sampling interval the pH was also measured; C. A picture of the inverted glass tube, only containing the self-sustaining non-fluid-like hydrogel, was taken in order to assess the physical deformation of the hydrogel and volume-loss; D. The PBS, mQ or enzyme solution is gently replaced on top of the hydrogel using a pipette, allowing repetition of steps A-D. Between sampling-intervals the glass tubes were kept undisturbed at room temperature. The gel degradation time was defined as the period required for complete disintegration of the hydrogels into liquid under observation of the naked eye.
(C) In a next step, the stability and degradation profiles of the mixed α/β-hydrogels were investigated using this methodology. During the first hours after addition of the elastase to peptide SEQ ID NO 1 hydrogel, no apparent physical deformation was observed. The collected liquid portion (on top of the hydrogel) measured 3 mL (during the first 10 hours). […] In comparison to the α-peptide 1 hydrogel the degradation time of peptide SEQ ID NO 1 hydrogel was extended from 3.5 days to 5.5 days. However, the physical alteration of this hydrogel into an opaque structure was already observed after one day.

elastase [2] = assay: Enzymatic degradation study of peptides in non-gelating conditions; type: in vitro ADME; settings: peptide 350 μM, elastase 60 μM, 37° C.
Protocol: The following biodegradation experiments were performed in order to assess biostability of peptides of the invention toward elastase, a prominent enzyme present in the subcutaneous compartment.
The following buffer was used to assay the proteolytic stability of the peptides towards elastase: 10 mM PBS at pH 7.2. First, a stock solution of elastase (60 μM in 10 mM PBS) was prepared. Peptides SEQ ID NO 1, 2 and 3 and reference α-peptide SEQ ID NO 23 were subjected to the degradation study and prepared as a stock solution of 350 μM in mQ water (with a resistivity of […]). Enzymatic degradation was carried out by incubation of peptide (900 μL, 350 μM) with the enzyme (150 μL, 60 μM) at 37° C. for 7 days. To preclude any pH-dependent effects on the enzyme's activity, the pH value was kept at pH 6.9±0.5 in all degradation experiments.
The enzyme concentration was selected such that the reference α-peptide SEQ ID NO 23 was completely degraded in less than 1 hour. In case of the α-peptide SEQ ID NO 23, aliquots (70 μL) were periodically taken at 0 min, 5 min, 10 min, 15 min, 20 min and 30 min, while for the mixed α/β-peptides aliquots (70 μL) were taken at 0 min, 20 min, 30 min, 1 h, 2 h, 5 h, 1 day, 2 days, 3 days, 4 days, 5 days and 6 days. 5 μL of 25% AcOH in water (v/v) were added and the degradation was monitored by HPLC analysis. After just 30 min of exposure to elastase, the reference α-peptide SEQ ID NO 23 was completely degraded. The enzymatic degradation of mixed α/β-peptides SEQ ID NO 1, SEQ ID NO 2 and SEQ ID NO 3 was remarkably slower and lasted several days. Mixed α/β-peptides SEQ ID NO 1 and SEQ ID NO 2 were completely consumed after 6 days whilst mixed α/β-peptide SEQ ID NO 1, SEQ ID NO 3 was degraded after 3 days.

[3] = Peptide self-assembly / gelation conditions; type: physicochemical; settings: TFA salt
Protocol: Peptide self-assembly was analyzed in i) a PBS solution (10 mM), ii) a PBS/mQ mixture (1:1 v:v, mQ water with a resistivity of […]) or iii) a NaCl aqueous solution (150 mM). The TFA salt of reference peptide SEQ NO. 23 (1 mg) was dissolved in 50 μl mQ water, followed by the addition of 50 μl PBS solution. This mixture was left to rest overnight, resulting in a 1% w/v hydrogel. The TFA salt of mixed α/β-peptides SEQ ID NO 1 and SEQ ID NO 2 (2 mg) was dissolved in mQ (100 μL) and PBS/mQ mixture (100 μL), respectively. […] The TFA salt of mixed α/β-peptide SEQ ID NO 3 (3 mg) was dissolved in PBS (100 μL) to probe gelation. All self-assembled gels were analyzed by circular dichroism (CD) and Fourier transform infrared (FT-IR) spectroscopy, as well as cryogenic transmission electron microscopy (Cryo-TEM).
(SEQ ID NO:22 (=10-mer)), 100 μl mQ water was added to 2 mg of TFA-salt of pure peptide, then vortexed and sonicated. As a result, a transparent self-supporting gel was formed immediately. A gelation condition of 2 w/v % in mQ water was found.
for H-Fβ^2hFEFQFK-NH2 (SEQ ID NO:19), 100 μl of PBS was added to 2 mg of TFA-salt of pure peptide, then vortexed and sonicated. After overnight resting, a self-supporting gel was formed. A gelation condition of 2 w/v % in PBS was determined.

[4] = Erosion / general stability of hydrogel without enzyme (PBS on top); type: physicochemical
Protocol: (A). The peptide hydrogel (1 mL) was prepared in a 10 mL glass tube using the appropriate gelation conditions (see peptide self-assembly in example 2). After leaving the hydrogel to rest overnight the degradation evaluation was started. First, general stability (without the incubation of an enzyme) was evaluated for α-peptide SEQ ID NO 23: 3 mL of mQ water was gently placed on top of the hydrogel and erosion experiments were performed by placing 3 mL PBS solution (10 mM) on top of the hydrogel to assess the hydrogels macroscopic decay in time. […] After 24 hours there was a small loss in volume (0.1 mL) of the formed hydrogel and the aggregation remained visible at the hydrogel surface. The PBS fraction was recollected and measured as 3.1 mL, in agreement with the 0.1 mL volume loss of the hydrogel. After 4 days the hydrogel was completely disintegrated into opaque aggregated pieces sticking to the bottom of the glass tube. The collected solution was measured to be 3.8 mL.

[5] = 3 mL PBS on top, after 24 hours

Compound | collected liquid portion on top of the hydrogel (elastase [1]; hydrogel with elastase, during the first 10 hours) | time at which hydrogel changed into an opaque structure (elastase [1]) | gel degradation time (hydrogel unstable/fluid-like) (elastase [1]) | time to complete degradation by elastase (elastase [2]; HPLC) | hydrogel volume relative to original volume (elastase [1]; hydrogel with elastase, after 35 days) | macroscopic aggregation / physical degradation (elastase [1]; hydrogel with elastase) | physical stability: time without observable volume loss (elastase [1]; hydrogel with elastase) | hydrogel concentration obtained ([3]; 50 μl mQ water + 50 μl PBS, rest overnight) | time of gelation (self-supporting gel formed) ([3]; at its own gelation condition) | time to complete degradation by elastase (elastase [2]; enzyme concentration selected for this) | hydrogel volume ([4]; 1 mL hydrogel, 3 mL PBS 10 mM on top, after 2 hours) | PBS fraction recollected [4, 5] | loss in volume of hydrogel [4, 5] | collected solution ([4]; 3 mL PBS on top, after 4 days) | time to complete disintegration of hydrogel ([4]; 3 mL PBS on top, no enzyme)
NCCCC[C@H](NC(=O)[C@H](Cc1ccccc1)NC(=O)C[C@H](Cc1ccccc1)NC(=O)[C@H](CCC(N)=O)NC(=O)[C@H](Cc1ccccc1)NC(=O)C[C@H](Cc1ccccc1)NC(=O)[C@H](CCC(=O)O)NC(=O)[C@@H](N)Cc1ccccc1)C(=O)O [SEQ ID NO 1, H-Phe-Glu-β^3hPhe-Phe-Gln-β^3hPhe-Phe-Lys-OH] (H-FE[β3hF]FQ[β3hF]FK-OH) | 3 mL | one | 5.5 days | 6 days and 3 days | – | – | – | – | – | – | – | – | – | – | –
NCCCC[C@H](NC(=O)[C@H](Cc1ccccc1)NC(=O)C[C@H](Cc1ccccc1)NC(=O)[C@H](CCC(N)=O)NC(=O)[C@H](Cc1ccccc1)NC(=O)C[C@H](Cc1ccccc1)NC(=O)[C@H](CCC(=O)O)NC(=O)[C@@H](N)Cc1ccccc1)C(N)=O [SEQ ID NO 2, H-Phe-Glu-β^3hPhe-Phe-Gln-β^3hPhe-Phe-Lys-NH2] (H-FE[β3hF]FQ[β3hF]FK-NH2) | – | – | – | 6 days | approximately half | no macroscopic aggregation was observed | – | – | – | – | – | – | – | – | –
NCCCC[C@H](NC(=O)[C@H](Cc1ccc(O)cc1)NC(=O)C[C@H](Cc1ccccc1)NC(=O)[C@H](CCC(N)=O)NC(=O)[C@H](Cc1ccc(O)cc1)NC(=O)C[C@H](Cc1ccccc1)NC(=O)[C@H](CCC(=O)O)NC(=O)[C@@H](N)Cc1ccccc1)C(N)=O [SEQ ID NO 3, H-Phe-Glu-β^3hPhe-Tyr-Gln-β^3hPhe-Tyr-Lys-NH2] (H-FE[β3hF]YQ[β3hF]YK-NH2) | – | – | – | 3 days | – | no significant physical degradation nor aggregation | over 42 days | – | – | – | – | – | – | – | –
H-FEFQFK-OH [SEQ ID NO 23, H-FEFQFK-OH, reference compound] | – | 2 days | 3.5 days | 0.0208 days | – | – | – | 1 % w/v | overnight | less than 1 hour | 1 mL | 3.1 mL | 0.1 mL | 3.8 mL | 4 days
